For 27 compounds, EC50 results are on record in patent publication US9156796B2, “Benzoimidazole-carboxylic acid amide derivatives as APJ receptor modulators” (SANOFI, priority 2013, dated 2015).

The target in this experiment is T1, human apelin receptor (Homo sapiens, UniProt P35414).
T1 construct: expressed in transfected cells
T1 sequence (P35414 1-380): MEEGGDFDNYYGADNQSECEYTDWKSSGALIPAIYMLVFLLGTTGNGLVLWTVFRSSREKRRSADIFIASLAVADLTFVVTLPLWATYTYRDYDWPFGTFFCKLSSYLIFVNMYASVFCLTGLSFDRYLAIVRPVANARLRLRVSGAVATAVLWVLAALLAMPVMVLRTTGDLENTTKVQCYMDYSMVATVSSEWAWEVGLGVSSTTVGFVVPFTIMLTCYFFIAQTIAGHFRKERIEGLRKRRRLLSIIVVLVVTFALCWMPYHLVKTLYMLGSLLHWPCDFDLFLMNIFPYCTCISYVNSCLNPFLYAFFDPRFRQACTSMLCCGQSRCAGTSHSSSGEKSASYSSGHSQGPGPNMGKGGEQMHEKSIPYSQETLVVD
The experiment in a line: Determination of agonism on the human apelin receptor by a calcium fluorescence assay (FLIPR). It counts as cell-based. The note with it: HEK293 cells stably transfected with human apelin receptor and Giaq protein, Fluo-4 calcium fluorescence, read-out: EC50 (APJ agonism). The gist of the method:
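Agonist EC50s come from peak intracellular calcium transients recorded by FLIPR Tetra, scaled to the 1 μM apelin-13 maximum per plate. Test system: HEK293 stably transfected with human apelin receptor plus Giaq, Fluo-4-loaded (4 μM, 1 h, 37 °C, pH 7.4 buffer with probenecid); ≥7 concentrations, triplicates.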

What is called EC50 is the concentration giving half of the maximal effect. Take `CCC(CC)n1c(Cc2cccs2)nc2cc(C(=O)N[C@@H](CC(C)C)C(=O)NCCCCN(CC)CC)ccc21` [Example 261, 1-(1-Ethyl-propyl)-2-thiophen-2-ylmethyl-1H-benzoimidazole-5-carboxylic acid [(S)-1-(4-diethylamino-butylcarbamoyl)-3 methyl-butyl]-amide]: the EC50 was determined as 269 nM.

As to `CC(C)C[C@H](NC(=O)c1ccc2c(c1)nc(Cc1cccs1)n2[C@@H]1CCCC[C@H]1C)[C@H](O)CC(=O)O` [Example 77, (3R,4S)-3-Hydroxy-6-methyl-4-{[1-((1R,2R)-2-methyl-cyclohexyl)-2-thiophen-2-ylmethyl-1H-benzoimidazole-5-carbonyl]-amino}-heptanoic acid], the EC50 was 53 nM.

As for `CCC(CC)n1c(Cc2ccccc2)nc2cc(C(=O)N[C@@H](CC(C)C)C(=O)O)ccc21` [Example 116, (S)-2-{[2-Benzyl-1-(1-ethyl-propyl)-1H-benzoimidazole-5-carbonyl]-amino}-4-methyl-pentanoic acid], the EC50 came to 6710 nM.

Consider `CC(C)C[C@H](NC(=O)c1ccc2c(c1)nc(Cc1cccs1)n2C(C(C)C)C(C)C)C(=O)O` [Example 164, (S)-2-{[1-(1-Isopropyl-2-methyl-propyl)-2-thiophen-2-ylmethyl-1H-benzoimidazole-5-carbonyl]-amino}-4-methyl-pentanoic acid], for which the EC50 was determined as 6350 nM.

Regarding `CCC(CC)n1c(Cc2cccs2)nc2cc(C(=O)N[C@@H](CC(C)C)C(=O)N3CCC(N4CCCCC4)C3)ccc21` (stereo partly drawn) [Example 299, 1-(1-Ethyl-propyl)-2-thiophen-2-ylmethyl-1H-benzoimidazole-5-carboxylic acid [(S)-3-methyl-1-(3-piperidin-1-yl-pyrrolidine-1-carbonyl)-butyl]-amide], the EC50 stood at 776 nM.

In the case of `CCC(CC)n1c(Cc2cccs2)nc2cc(C(=O)N[C@@H](CC(C)C)C(=O)NCc3nccs3)ccc21` [Example 250, 1-(1-Ethyl-propyl)-2-thiophen-2-ylmethyl-1H-benzoimidazole-5-carboxylic acid {(S)-3-methyl-1-[(thiazol-2-ylmethyl)-carbamoyl]-butyl}-amide], the half-maximal effective concentration (EC50) was found to be 520 nM.

With `CC(C)C[C@H](NC(=O)c1ccc2c(c1)nc(Cc1ccco1)n2C1CCCCC1C)C(=O)O` (stereo partly drawn) [Example 86, (S)-2-{[2-Furan-2-ylmethyl-1-(2-methyl-cyclohexyl)-1H-benzoimidazole-5-carbonyl]-amino}-4-methyl-pentanoic acid], the EC50 is 88 nM.

Regarding `CCC(CC)n1c(Cc2ccco2)nc2cc(C(=O)NC(CC(=O)O)c3ccccc3)ccc21` (stereo not drawn) [Example 42, 3-{[1-(1-Ethyl-propyl)-2-furan-2-ylmethyl-1H-benzoimidazole-5-carbonyl]-amino}-3-phenyl-propionic acid], the EC50 was determined as 1100 nM.

Take `CCC(CC)n1c(Cc2cccs2)nc2cc(C(=O)N[C@@H](CC(C)C)C(=O)N3CCN(C)CC3)ccc21` [Example 225, 1-(1-Ethyl-propyl)-2-thiophen-2-ylmethyl-1H-benzoimidazole-5-carboxylic acid [(S)-3-methyl-1-(4-methyl-piperazine-1-carbonyl)-butyl]-amide]: the EC50 is 775 nM.

Take `CCC(CC)n1c(Cc2cccs2)nc2cc(C(=O)NC(CC(N)=O)CC(C)C)ccc21` (stereo not drawn) [Example 174, 1-(1-Ethyl-propyl)-2-thiophen-2-ylmethyl-1H-benzoimidazole-5-carboxylic acid (1-carbamoylmethyl-3-methyl-butyl)-amide]: the EC50 worked out at 301 nM.

On to `CCCC(CCO)NC(=O)c1ccc2c(c1)nc(Cc1cccs1)n2C(CC)CC` (single isomer, unassigned) [Example 471], for which the EC50 worked out at 5020 nM.

With `CCC(CC)n1c(Cc2cccs2)nc2cc(C(=O)NC(CC(C)C)c3nc(C)c(C)s3)ccc21` (stereo not drawn) [Example 480, 1-(1-Ethyl-propyl)-2-thiophen-2-ylmethyl-1H-benzoimidazole-5-carboxylic acid [1-(4,5-dimethyl-thiazol-2-yl)-3-methyl-butyl]-amide], the EC50 came to 20000 nM.

On to `CCC(CC)n1c(Cc2cccs2)nc2cc(C(=O)N[C@@H](CC(C)C)C(=O)NC3CCN(Cc4cccc(F)c4)CC3)ccc21` [Example 301, 1-(1-Ethyl-propyl)-2-thiophen-2-ylmethyl-1H-benzoimidazole-5-carboxylic acid {(S)-1-[1-(3-fluoro-benzyl)-piperidin-4-ylcarbamoyl]-3-methyl-butyl}-amide], for which the EC50 came out at 2460 nM.

As to `CCC(CC)n1c(Cc2cccs2)nc2cc(C(=O)N[C@@H](CC(C)C)C(=O)N3CCC(N(C)CCN(C)C)CC3)ccc21` [Example 310, 1-(1-Ethyl-propyl)-2-thiophen-2-ylmethyl-1H-benzoimidazole-5-carboxylic acid ((S)-1-{4-[(2-dimethylamino-ethyl)-methyl-amino]-piperidine-1-carbonyl}-3-methyl-butyl)-amide], the EC50 was found to be 162 nM.

As for `CCC(CC)n1c(Cc2cccs2)nc2cc(C(=O)N[C@@H](CC(C)C)C(=O)NCCC3CCCCN3C)ccc21` (stereo partly drawn) [Example 289, 1-(1-Ethyl-propyl)-2-thiophen-2-ylmethyl-1H-benzoimidazole-5-carboxylic acid {(S)-3-methyl-1-[2-(1-methyl-piperidin-2-yl)-ethylcarbamoyl]-butyl}-amide], the EC50 is 341 nM.

Take `CCC(CC)n1c(Cc2cccs2)nc2cc(C(=O)N[C@H](CC(=O)O)C(C)C)ccc21` [Example 161, (R)-3-{[1-(1-Ethyl-propyl)-2-thiophen-2-ylmethyl-1H-benzoimidazole-5-carbonyl]-amino}-4-methyl-pentanoic acid]: the EC50 amounted to 2300 nM.

`CCC(CC)n1c(Cc2cccs2)nc2cc(C(=O)N[C@@H](CC(C)C)C(=O)NCC3CCCN4CCCCC34)ccc21` (stereo partly drawn) [Example 275, 1-(1-Ethyl-propyl)-2-thiophen-2-ylmethyl-1H-benzoimidazole-5-carboxylic acid {(S)-3-methyl-1-[(octahydro-quinolizin-1-ylmethyl)-carbamoyl]-butyl}-amide]: the EC50 stood at 242 nM.

On to `CCC(CC)n1c(Cc2cccs2)nc2cc(C(=O)N[C@H](CC(=O)O)CC(C)C)ccc21` [Example 95, (S)-3-{[1-(1-Ethyl-propyl)-2-thiophen-2-ylmethyl-1H-benzoimidazole-5-carbonyl]-amino}-5-methyl-hexanoic acid], for which the EC50 stood at 95 nM.

With `CC(C)C[C@H](NC(=O)c1ccc2c(c1)nc(CC1CCCC1)n2C1CCCCC1)C(=O)O` [Example 112, (S)-2-[(1-Cyclohexyl-2-cyclopentylmethyl-1H-benzoimidazole-5-carbonyl)-amino]-4-methyl-pentanoic acid], the EC50 was 12800 nM.

As to `CCC(CC)n1c(Cc2cccs2)nc2cc(C(=O)N[C@@H](CC(C)C)C(=O)N3CCC(N4CCOCC4)CC3)ccc21` [Example 334, 1-(1-Ethyl-propyl)-2-thiophen-2-ylmethyl-1H-benzoimidazole-5-carboxylic acid [(S)-3-methyl-1-(4-morpholin-4-yl-piperidine-1-carbonyl)-butyl]-amide], the EC50 stood at 412 nM.

Consider `CCC(CC)n1c(Cc2cccs2)nc2cc(C(=O)NC(CC3CCC(C)(C)CC3)C(=O)O)ccc21` (stereo not drawn) [Example 29, 3-(4,4-Dimethyl-cyclohexyl)-2-{[1-(1-ethyl-propyl)-2-thiophen-2-ylmethyl-1H-benzoimidazole-5-carbonyl]-amino}-propionic acid], for which the EC50 was 5660 nM.

For `CCC(CC)n1c(Cc2cccs2)nc2cc(C(=O)N[C@@H](CC(C)C)C(=O)NCCc3ccccc3OC)ccc21` [Example 362, 1-(1-Ethyl-propyl)-2-thiophen-2-ylmethyl-1H-benzoimidazole-5-carboxylic acid {(S)-1-[2-(2-methoxy-phenyl)-ethylcarbamoyl]-3-methyl-butyl}-amide], the EC50 came to 27100 nM.

Consider `CCC(CC)n1c(CC2CCCO2)nc2cc(C(=O)N[C@@H](CC(C)C)C(=O)O)ccc21` (stereo partly drawn) [Example 80, (S)-2-{[1-(1-Ethyl-propyl)-2-(tetrahydro-furan-2-ylmethyl)-1H-benzoimidazole-5-carbonyl]-amino}-4-methyl-pentanoic acid], for which the concentration for a half-maximal effect (EC50) is 1670 nM.

In the case of `CCC(CC)n1c(Cc2cccs2)nc2cc(C(=O)NC(CC)(C(=O)O)c3ccccc3)ccc21` (stereo not drawn) [Example 7, 2-{[1-(1-Ethyl-propyl)-2-thiophen-2-ylmethyl-1H-benzoimidazole-5-carbonyl]-amino}-2-phenyl-butyric acid], the EC50 is 44300 nM.

Turning to `CCC(CC)n1c(Cc2cccs2)nc2cc(C(=O)N[C@@H](CC(C)C)C(=O)N3CC4CC3CN4CC(C)C)ccc21` (stereo partly drawn) [Example 348, 1-(1-Ethyl-propyl)-2-thiophen-2-ylmethyl-1H-benzoimidazole-5-carboxylic acid [(S)-1-(5-isobutyl-2,5-diaza-bicyclo[2.2.1]heptane-2-carbonyl)-3-methyl-butyl]-amide], the EC50 worked out at 2660 nM.

With `CC(C)C[C@H](NC(=O)c1ccc2c(c1)nc(Cc1cccs1)n2C1CCCC1C)C(=O)O` (single isomer, unassigned) [Example 428], the EC50 was 266 nM.

As for `CCC(CC)n1c(Cc2cccs2)nc2cc(C(=O)N[C@@H](CC(C)C)C(=O)N3CCC[C@@H]3COC)ccc21` [Example 365, 1-(1-Ethyl-propyl)-2-thiophen-2-ylmethyl-1H-benzoimidazole-5-carboxylic acid [(S)-1-((R)-2-methoxymethyl-pyrrolidine-1-carbonyl)-3-methyl-butyl]-amide], the EC50 turned out to be 2750 nM.
